Values after ≈ are worked out from the molar mass of the structure shown. Read-outs that look alike come from different tables or passages of the source. Marks after values point to notes of the source that are not given here.
Assays:
[1] = PAMPA permeability assay, blood-brain barrier (BBB) model; format: in vitro ADME; settings: donor pH ≈7.4, 4 h, 37 °C
Description: (§1) HPLC was used to measure the concentrations of piperine and curcumin in samples taken during permeability, dissolution, and solubility investigations. A Shimadzu LC-2050C (Shimadzu Corp., Kyoto, Japan) was equipped with a diode array detector (DAD). A Dr. Maisch ReproSil-Pur Basic-C18 100 Å column with a 5 µm particle size and a 100 × 4.60 mm size (Dr. Maisch, Ammerbuch-Entringen, Germany) was used as a stationary phase. HPLC-grade methanol/0.1% acetic acid (85:15 v/v) was used as the mobile phase. The mobile phase was vacuum filtered through a 0.45 µm nylon filter (Phenomenex, Torrance, CA, USA). The analysis parameters were as follows: a flow rate of 0.3 mL/min, a wavelength of 420 nm for curcumin and 340 nm for piperine, and a column temperature of 30 °C. The injection volume differed depending on the assay. […] The duration of the run was 9 min. […] Chromatograms (Figure S1) and method validation parameters (Table S1) were added to the Supplementary Materials. The Parallel Artificial Membrane Permeability Assay (PAMPA) models were used to study the permeability of the blood-brain barrier (BBB) and the gastrointestinal tract (GIT) in vitro. Two 96-well microfilter plates formed the sandwich. There were two chambers in the PAMPA system: the acceptor chamber at the top and the donor chamber at the bottom. […]

[2] = Differential scanning calorimetry (glass transition, glass-forming ability); format: physicochemical; settings: heating–cooling–heating, different cooling rates; no crystallization during cooling and following heating
Description: A DSC 214 Polyma differential scanning calorimeter (Netzsch, Selb, Germany) was used for the thermal analysis. Samples of about 5–10 mg were put into crimped aluminum pans with a small hole in the lid. To remove water from the samples, they were heated to 80 °C and kept for 8 min at this temperature, cooled to 25 °C, and then heated again to 235 °C. Raw compounds were heated to 235 °C, cooled to 25 °C, and then heated once again to 235 °C to determine their glass transition temperature (Tg). […] The Tg was taken as the midpoint between onset and endpoint temperatures. Various heating–cooling–heating cycles were carried out to evaluate the glass-forming abilities.

[3] = PAMPA permeability assay, gastrointestinal tract (GIT) model; format: in vitro ADME; settings: donor pH ≈6.8, 4 h, 37 °C
Description: as §1

[4] = Solubility studies (excess powder, 24 h, 25 °C, HPLC); format: physicochemical; settings: for solubility at 24 h: 25 °C; for Solubility classification: based on solubility test at pH 1.2 and pH 6.8, crystalline compounds
Description: HPLC was used to measure the concentrations of piperine and curcumin in samples taken during permeability, dissolution, and solubility investigations. A Shimadzu LC-2050C (Shimadzu Corp., Kyoto, Japan) was equipped with a diode array detector (DAD). A Dr. Maisch ReproSil-Pur Basic-C18 100 Å column with a 5 μm particle size and a 100 × 4.60 mm size (Dr. Maisch, Ammerbuch-Entringen, Germany) was used as a stationary phase. HPLC-grade methanol/0.1% acetic acid (85:15 v/v) was used as the mobile phase. The mobile phase was vacuum filtered through a 0.45 μm nylon filter (Phenomenex, Torrance, CA, USA). The analysis parameters were as follows: a flow rate of 0.3 mL/min, a wavelength of 420 nm for curcumin and 340 nm for piperine, and a column temperature of 30 °C. The injection volume differed depending on the assay. […] The duration of the run was 9 min. […] Chromatograms (Figure S1) and method validation parameters (Table S1) were added to the Supplementary Materials. The following steps were used to prepare phosphate buffer at pH 6.8: In a 1000 mL volumetric flask, 250 mL of 0.2 N potassium dihydrogen phosphate solution was added, followed by 112 mL of a 0.2 N sodium hydroxide solution. Purified water was added to make the volume up to 1000 mL. A hydrochloric acid solution with a pH of 1.2 was prepared according to the manufacturer's instructions ([…], Poznań, Poland) from the analytically weighed amount. A 10 mL glass tube was filled with an excess amount of powder (corresponding to 4 mg of each active substance). […] The obtained solutions were filtered, diluted 1:20 v/v with water, and filtered again through a 0.2 μm PTFE membrane filter (Sigma-Aldrich, St. Louis, MO, USA) and analyzed using the HPLC method described above.

[5] = cited from earlier work

Permeability, Curcumin Conc. in the acceptor solution [1] | Permeability, Curcumin Conc. in the acceptor solution [3] | solubility at 24 h ([4]; HCl solution, pH 1.2 HCl, read-out: Solubility, Curcumin Conc.) | Compound | Glass-forming ability [2] | Solubility classification [4] | Log P [5] | Permeability, Piperine Conc. in the acceptor solution [1] | Permeability, Piperine Conc. in the acceptor solution [3] | solubility at 24 h ([4]; HCl solution, simulated gastric fluid, thermodynamic from solid, pH 1.2 HCl, read-out: Solubility, Piperine Conc.) | solubility at 24 h ([4]; aqueous buffer, thermodynamic from solid, pH 6.8 phosphate buffer, read-out: Solubility, Piperine Conc.)
0.00016 ± 0.000057 ^f mg/mL | 0.00061 ± 0.000038 ^g mg/mL | 0.11 ± 0.01 µg/mL (≈ 0.299 µM) | COc1cc(/C=C/C(=O)CC(=O)/C=C/c2ccc(O)c(OC)c2)ccc1O [Curcumin] | good glass-forming ability | practically insoluble |  |  |  |  | 
 |  |  | O=C(/C=C/C=C/c1ccc2c(c1)OCO2)N1CCCCC1 [Piperine] | good glass-forming ability | practically insoluble | 2.78 | 0.0051 ± 0.0003 ^f mg/mL | 0.0044 ± 0.0008 ^g mg/mL | 9 ± 0.6 µg/mL (≈ 31.5 µM) | 8 ± 0.4 µg/mL (≈ 28 µM)

Source: publication PMC11359794, “Amorphous Polymer–Phospholipid Solid Dispersions for the Co-Delivery of Curcumin and Piperine Prepared via Hot-Melt Extrusion” (Pharmaceutics, 2024)
